In one assay the target is T1, MCR-1 (Homo sapiens, UniProt Q01726).
T1 construct: expressed in transfected cells; host or cells: HEK 293
Put plainly: Melanocortin receptor binding assay, competition with 125I-HP 467, HEK 293 cells expressing hMCR-1. Conditions: for IC50: read-out: MC-1 IC50; for % Disp. MC-1 10 μM: displacement of 125I-HP 467 at 10 μM isoquinoline compound. The procedure, abridged: (§1)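 Test compounds compete on intact HEK 293 cells carrying hMCR-1 (2×10^4 per tube) or hMCR-4 (4×10^3 per tube), suspended in PBS, 10% calf serum, 1 mM CaCl2.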
A general note: Loss of bound radioactivity is the signal in a displacement assay; it reports binding, not function.

A further assay addresses T2, MCR-4 (Homo sapiens, UniProt P32245).
T2 construct: expressed in transfected cells; host or cells: HEK 293
Put plainly: Melanocortin receptor binding assay, competition with 125I-HP 467, HEK 293 cells expressing hMCR-4. The following applies: for IC50: read-out: MC-4 IC50. The procedure, abridged:
as §1

The mark [1] stands for this setting: TRG 2405 section, inhibition of binding of 125I-HP 467, HEK 293 cells expressing MCR-1.
[2] abbreviates: TRG 2405 section, inhibition of binding of 125I-HP 467, HEK 293 cells expressing MCR-4.
[3] abbreviates: TRG 2406 and TRG 2407 libraries, inhibition of binding of 125I-HP 467.

For orientation: IC50 means the concentration that gives 50% inhibition.

Read-outs that look alike come from different tables or passages of the source.

T2 sequence (P32245 whole entry): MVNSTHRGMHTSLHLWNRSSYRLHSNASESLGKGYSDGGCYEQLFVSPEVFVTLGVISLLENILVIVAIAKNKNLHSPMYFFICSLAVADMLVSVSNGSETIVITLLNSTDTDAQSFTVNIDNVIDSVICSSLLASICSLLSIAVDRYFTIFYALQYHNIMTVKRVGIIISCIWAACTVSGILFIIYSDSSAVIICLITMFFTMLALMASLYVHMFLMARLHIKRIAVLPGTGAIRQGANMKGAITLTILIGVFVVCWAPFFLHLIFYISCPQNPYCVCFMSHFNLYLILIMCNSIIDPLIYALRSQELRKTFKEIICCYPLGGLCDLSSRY
T1 sequence (Q01726 whole entry): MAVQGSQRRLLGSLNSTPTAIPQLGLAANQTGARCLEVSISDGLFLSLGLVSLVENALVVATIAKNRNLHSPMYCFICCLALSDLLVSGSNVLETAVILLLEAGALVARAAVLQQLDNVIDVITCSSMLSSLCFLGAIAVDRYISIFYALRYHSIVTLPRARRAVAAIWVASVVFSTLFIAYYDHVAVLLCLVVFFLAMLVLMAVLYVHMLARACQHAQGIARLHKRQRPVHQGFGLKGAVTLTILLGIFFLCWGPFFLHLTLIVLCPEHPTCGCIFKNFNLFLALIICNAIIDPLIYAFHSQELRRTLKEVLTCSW

Take `CNC(CN)CN1Cc2ccccc2C(CNC2CCCCC2)C1c1cccc(Oc2ccc(OC)cc2)c1` (centres unmarked) [TRG 2405-124]: the IC50 at MCR-1 (setting [1]) turned out to be 5.16 µM; on MCR-4 (setting [2]), 3.1 µM. The “% Disp. MC-1 10 μM” value was 65.2% on MCR-1 (first of duplicate) and 63% on MCR-1 (second of duplicate).

Take `CNC(CN)CN1Cc2ccccc2C(CNC2CCCCC2)C1c1ccc(F)c(Br)c1` (centres unmarked) [TRG 2405-126]: the values for the IC50 at MCR-1 (setting [1]) and at MCR-4 (setting [2]) were 5.34 µM and 12.8 µM, respectively. Also, the “% Disp. MC-1 10 μM” value on MCR-1 (first of duplicate) was 52.4%; at MCR-1 (second of duplicate) it was 58.4%.

As for `CNC(CN)CN1Cc2ccccc2C(CNC2CCCCC2)C1c1cccc(O)c1` (centres unmarked) [TRG 2405-133], the IC50 came out at 20 µM on MCR-1 (setting [1]) and 12.4 µM at MCR-4 (setting [2]). Also, the results for the “% Disp. MC-1 10 μM” value at MCR-1 (first of duplicate) and at MCR-1 (second of duplicate) were 37.7% and 44.1%, respectively.

In the case of `CNC(CN)CN1Cc2ccccc2C(CNC2CCCCC2)C1c1ccc(C(F)(F)F)cc1` (centres unmarked) [TRG 2405-148], the IC50 at MCR-1 (setting [1]) came out at 10.3 µM; at MCR-4 (setting [2]) it was 8.95 µM. For the same compound, the “% Disp. MC-1 10 μM” value is reported as 63.7% at MCR-1 (first of duplicate) and 57.4% at MCR-1 (second of duplicate).

Take `CNC(CN)CN1Cc2ccccc2C(CNC2CCCCC2)C1c1ccc([N+](=O)[O-])o1` (centres unmarked) [TRG 2405-170]: the IC50 on MCR-1 (setting [1]) turned out to be 4.81 µM; at MCR-4 (setting [2]), 10.2 µM. Moreover, the “% Disp. MC-1 10 μM” value is 68.4% on MCR-1 (first of duplicate) and 57.5% on MCR-1 (second of duplicate).

For `CNC(CN)CCCCN1Cc2ccccc2C(CNCc2ccccc2O)C1c1cccn1C` (centres unmarked) [TRG 2406-1], the IC50 was determined as 3.79 µM at MCR-1 (setting [3]) and 5.85 µM at MCR-4 (setting [3]).

On to `NCCN1Cc2ccccc2C(CNCc2ccccc2O)C1c1cccc(Oc2ccc(Cl)c(Cl)c2)c1` (centres unmarked) [TRG 2406-2], for which the IC50 at MCR-1 (setting [3]) was 7.86 µM; on MCR-4 (setting [3]), 3.86 µM.

With `CNC(CN)CN1Cc2ccccc2C(CNCc2ccccc2O)C1c1cccc(Oc2ccc(Cl)c(Cl)c2)c1` (centres unmarked) [TRG 2406-3], the IC50 was 12.3 µM on MCR-1 (setting [3]) and 9.69 µM at MCR-4 (setting [3]).

Take `COc1ccc(Oc2cccc(C3C(CNCc4ccccc4O)c4ccccc4CN3CCN)c2)cc1` (centres unmarked) [TRG 2406-5]: the IC50 at MCR-1 (setting [3]) turned out to be 6.16 µM; on MCR-4 (setting [3]), 3.41 µM.

In the case of `CNC(CN)CN1Cc2ccccc2C(CNCc2ccccc2O)C1c1cccc(Oc2ccc(OC)cc2)c1` (centres unmarked) [TRG 2406-6], the values for the IC50 on MCR-1 (setting [3]) and at MCR-4 (setting [3]) were 3.17 µM and 1.36 µM, respectively.

As to `CNC(CN)CCCCN1Cc2ccccc2C(CNCc2ccccc2O)C1c1cccc(Oc2ccc(OC)cc2)c1` (centres unmarked) [TRG 2406-7], the values for the IC50 at MCR-1 (setting [3]) and at MCR-4 (setting [3]) were 1.23 µM and 1.74 µM, respectively.

For `NCCN1Cc2ccccc2C(CNCc2ccccc2O)C1c1cccc(Oc2ccccc2)c1` (centres unmarked) [TRG 2406-8], the IC50 was determined as 7.48 µM on MCR-1 (setting [3]) and 5.67 µM at MCR-4 (setting [3]).

`CNC(CN)CN1Cc2ccccc2C(CNCc2ccccc2O)C1c1cccc(Oc2ccccc2)c1` (centres unmarked) [TRG 2406-9]: the values for the IC50 on MCR-1 (setting [3]) and on MCR-4 (setting [3]) were 3.66 µM and 2.1 µM, respectively.

On to `CNC(CN)CCCCN1Cc2ccccc2C(CNCc2ccccc2O)C1c1cccc(Oc2ccccc2)c1` (centres unmarked) [TRG 2406-10], for which the results for the IC50 on MCR-1 (setting [3]) and on MCR-4 (setting [3]) were 0.85 µM and 0.26 µM, respectively.

For `CNC(CN)CN1Cc2ccccc2C(CNCc2ccccc2O)C1c1ccc(Oc2ccccc2)cc1` (centres unmarked) [TRG 2406-12], the IC50 at MCR-1 (setting [3]) stood at 5.44 µM; at MCR-4 (setting [3]), 2.62 µM.

For `CNC(CN)CCCCN1Cc2ccccc2C(CNCc2ccccc2O)C1c1ccc(Oc2ccccc2)cc1` (centres unmarked) [TRG 2406-13], the IC50 at MCR-1 (setting [3]) is 0.18 µM; at MCR-4 (setting [3]), 1.29 µM.

On to `CCCOc1ccc(C2C(CNCc3ccccc3O)c3ccccc3CN2CCN)cc1` (centres unmarked) [TRG 2406-14], for which the IC50 was found to be 8.31 µM on MCR-1 (setting [3]) and 5.36 µM at MCR-4 (setting [3]).

As to `CCCOc1ccc(C2C(CNCc3ccccc3O)c3ccccc3CN2CC(CN)NC)cc1` (centres unmarked) [TRG 2406-15], the IC50 on MCR-1 (setting [3]) was 7.22 µM; on MCR-4 (setting [3]) it was 2.75 µM.

`CCCOc1ccc(C2C(CNCc3ccccc3O)c3ccccc3CN2CCCCC(CN)NC)cc1` (centres unmarked) [TRG 2406-16]: the results for the IC50 on MCR-1 (setting [3]) and at MCR-4 (setting [3]) were 2.12 µM and 11.6 µM, respectively.

Turning to `CCn1c2ccccc2c2cc(C3C(CNCc4ccccc4O)c4ccccc4CN3CCN)ccc21` (centres unmarked) [TRG 2406-20], the IC50 on MCR-1 (setting [3]) was 10.8 µM; at MCR-4 (setting [3]) it was 3.3 µM.

Regarding `CCn1c2ccccc2c2cc(C3C(CNCc4ccccc4O)c4ccccc4CN3CC(CN)NC)ccc21` (centres unmarked) [TRG 2406-21], the IC50 on MCR-1 (setting [3]) came to 6.25 µM; on MCR-4 (setting [3]) it was 1.53 µM.

In the case of `CCn1c2ccccc2c2cc(C3C(CNCc4ccccc4O)c4ccccc4CN3CCCCC(CN)NC)ccc21` (centres unmarked) [TRG 2406-22], the IC50 worked out at 2.12 µM at MCR-1 (setting [3]) and 1.79 µM on MCR-4 (setting [3]).

With `CNC(CN)CCCCN1Cc2ccccc2C(CN(C)c2ccccc2)C1c1ccc(Cl)cc1Cl` (centres unmarked) [TRG 2407-2], the IC50 at MCR-1 (setting [3]) amounted to 5.75 µM; at MCR-4 (setting [3]), 6.26 µM.

`CNC(CN)CCCCN1Cc2ccccc2C(CNc2ccccc2Cl)C1c1ccc(Cl)cc1Cl` (centres unmarked) [TRG 2407-3]: the IC50 stood at 8.46 µM at MCR-1 (setting [3]) and 9.45 µM on MCR-4 (setting [3]).

On to `CNC(CN)CCCCN1Cc2ccccc2C(CNc2ccccc2OC)C1c1ccc(Cl)cc1Cl` (centres unmarked) [TRG 2407-4], for which the figures for the IC50 on MCR-1 (setting [3]) and on MCR-4 (setting [3]) were 3.65 µM and 4.12 µM, respectively.

With `CNC(CN)CCCCN1Cc2ccccc2C(CNc2cccc(Cl)c2)C1c1ccc(Cl)cc1Cl` (centres unmarked) [TRG 2407-5], the IC50 was 8.82 µM at MCR-1 (setting [3]) and 14.7 µM on MCR-4 (setting [3]).

On to `CCOc1cccc(NCC2c3ccccc3CN(CCCCC(CN)NC)C2c2ccc(Cl)cc2Cl)c1` (centres unmarked) [TRG 2407-6], for which the IC50 on MCR-1 (setting [3]) was found to be 3.42 µM; at MCR-4 (setting [3]), 6.97 µM.

For the compound `CNC(CN)CCCCN1Cc2ccccc2C(CNc2cccc(O)c2)C1c1ccc(Cl)cc1Cl` (centres unmarked) [TRG 2407-7], at MCR-1 (setting [3]), the IC50 was found to be 4.38 µM. The “MC-4 IC50” value at MCR-4 (setting [3]) is “no fit”.

In the case of `CNC(CN)CCCCN1Cc2ccccc2C(CNc2ccc(Cl)cc2)C1c1ccc(Cl)cc1Cl` (centres unmarked) [TRG 2407-8], the IC50 was found to be 10.9 µM at MCR-1 (setting [3]) and 21.2 µM at MCR-4 (setting [3]).

Take `CNC(CN)CCCCN1Cc2ccccc2C(CNc2ccc(OC)cc2)C1c1ccc(Cl)cc1Cl` (centres unmarked) [TRG 2407-9]: the IC50 on MCR-1 (setting [3]) was determined as 2.53 µM; at MCR-4 (setting [3]), 6.22 µM.

Consider `CNC(CN)CCCCN1Cc2ccccc2C(CNCc2ccccc2)C1c1ccc(Cl)cc1Cl` (centres unmarked) [TRG 2407-10], for which the IC50 on MCR-1 (setting [3]) is 4.13 µM; on MCR-4 (setting [3]), 3.85 µM.

On to `CNC(CN)CCCCN1Cc2ccccc2C(CN(C)Cc2ccccc2)C1c1ccc(Cl)cc1Cl` (centres unmarked) [TRG 2407-11], for which the IC50 came to 5.31 µM on MCR-1 (setting [3]) and 6.17 µM on MCR-4 (setting [3]).

As for `CNC(CN)CCCCN1Cc2ccccc2C(CNCc2ccccc2Cl)C1c1ccc(Cl)cc1Cl` (centres unmarked) [TRG 2407-12], the IC50 was 2.7 µM at MCR-1 (setting [3]) and 3.23 µM on MCR-4 (setting [3]).

For `CNC(CN)CCCCN1Cc2ccccc2C(CNCc2ccccc2C(F)(F)F)C1c1ccc(Cl)cc1Cl` (centres unmarked) [TRG 2407-13], the results for the IC50 on MCR-1 (setting [3]) and at MCR-4 (setting [3]) were 8.5 µM and 9.25 µM, respectively.

On to `CCOc1ccccc1CNCC1c2ccccc2CN(CCCCC(CN)NC)C1c1ccc(Cl)cc1Cl` (centres unmarked) [TRG 2407-15], for which the IC50 at MCR-1 (setting [3]) was 1.2 µM; at MCR-4 (setting [3]), 0.78 µM.

`CNC(CN)CCCCN1Cc2ccccc2C(CNCc2cccc(OC)c2)C1c1ccc(Cl)cc1Cl` (centres unmarked) [TRG 2407-16]: the IC50 on MCR-1 (setting [3]) was 5.83 µM; at MCR-4 (setting [3]), 1.81 µM.

As for `CNC(CN)CCCCN1Cc2ccccc2C(CNCc2cccc(C(F)(F)F)c2)C1c1ccc(Cl)cc1Cl` (centres unmarked) [TRG 2407-17], the IC50 on MCR-1 (setting [3]) came out at 10.1 µM; at MCR-4 (setting [3]), 9.22 µM.

On to `CNC(CN)CCCCN1Cc2ccccc2C(CNCc2ccc(Cl)cc2)C1c1ccc(Cl)cc1Cl` (centres unmarked) [TRG 2407-18], for which the IC50 was determined as 3.31 µM at MCR-1 (setting [3]) and 2.83 µM on MCR-4 (setting [3]).

These data come from patent US6608082B1, “Treatment of erectile dysfunction using isoquinoline compound melanocortin receptor ligands” (Lion Bioscience AG, priority 1998, dated 2003).
